Data taken from patent US12653796B2, “Compounds for use (in particular RIPA-56) in the prevention and/or treatment of non-alcoholic fatty liver disease” (SORBONNE UNIVERSITE, priority 2019, dated 2026).

How the values were obtained:
L929 cells = assay: TNF-induced RIPK1-dependent cell death in L929 cells (MTT cell survival); type: cell-based; settings: 20 μM, 2 h pre-treatment, TNF (50 ng/mL) 20 h
Method: FIG. 1. RIPA-56 prevents RIPK1-dependent cell death in L929 cells upon caspase inhibition and TNF stimulation. L929 cells were treated with RIPA-56 (20 μM), Nec-1 (20 μM) or vehicle for 2 h, prior to incubation with or without TNF (50 ng/mL), and analyzed for (A) morphology and (B) cell survival using MTT assay, after 20 h incubation with or without TNF; (C) Western blot analyses at different time points of incubation with TNF. Results are shown as mean±SEM; n.s., not significant; ****p<0.0001. Data are representative of three independent experiments.
L929 cells (LGC Standards, Molsheim, France), were cultured in Dulbecco's modified Eagle's medium (DMEM) (ThermoFisher, Massachusetts, USA) supplemented with 10% fetal bovine serum (Eurobio, Courtaboeuf, France), penicillin (100 IU/ml), streptomycin (0.1 mg/ml), and L-glutamine (0.03%) (ThermoFisher). […]
Cell viability was determined by using 3-(4,5-dimethylthiazol-2-yl)-[…] (MTT) colorimetric assay (ThermoFisher), which measures cell metabolic activity. […] Once MTT crystals were developed and controlled under light microscopy, they were dissolved in DMSO and quantified by measuring absorbance at 540 nm.

HFD-fed mice = assay: RIPA-56 feeding experiment in HFD-fed mice (NASH/steatosis model); type: in vivo, C57BL/6J mice
Method: FIG. 2. RIPA-56 treatment improves liver inflammation and fibrosis in HFD-fed mice. Six-week-old male C57BL/6J mice (n=5 per group) were fed either with normal control diet (NCD) or high-fat diet (HFD) supplemented or not with RIPA-56, according to prophylactic (“Pro”) or curative (“Cur”) designs for 16 weeks, the time necessary for an inflammatory and fibrotic response to develop. Differences between mice were determined by analysis of variance (ANOVA) with Bonferroni's multiple comparison. (A) Schematic representation of the experimental design; (B) Immunoblot analyses of whole liver protein extracts from mice fed NCD (1 to 3), HFD (4 to 6), HFD with RIPA-56 “Pro” (7 to 9), or HFD with RIPA-56 “Cur” (10 to 12) using antibodies against RIPK1, MLKL, RIPK3 and GAPDH as loading control; (C) Serum analysis of ALT; (D) Immuno-histochemical analysis of F4/80 on representative liver tissue sections from mice of each group; (E) Quantitative analysis of F4/80^+ foci using ImageJ software, 10 pictures per mouse were quantified; (F) F4/80, Mcp-1 and Tnf mRNA levels were assessed by RT-qPCR. (G) Representative Sirius Red staining of liver tissue section from mice of each group; (H) Quantification of light polarized Sirius Red pictures, 10 pictures per mouse were analyzed; (I) Collal mRNA levels were assessed by RT-qPCR. All data are expressed as mean±SEM; *p<0.05; **p<0.01; ***p<0.001. Scale bars indicate 50 μm.
FIG. 5. RIPA-56 treatment improves HFD-induced obesity and steatosis in mice. Six-week-old male C57BL/6J mice (n=5 per group) were fed either NCD or HFD supplemented or not with RIPA-56 for 16 weeks, as depicted in FIG. 2A, to analyze the metabolic status of the mice. (A) Body weight gain in mice of the 4 groups. No significant change in (B) food intake, (C) spontaneous locomotor activity, or (D) respiratory exchange ratio (RER) in mice Of the 4 groups; (E) Whole energy expenditure was evaluated during daylight and night in mice of the 4 groups; (F) Representative H&E staining of liver tissue sections from mice of the 4 groups. Scale bars, 50 μm; (G) Steatosis score of liver tissue sections was evaluated blinded; (H) Intrahepatic triglyceride contents were measured in two liver samples per mouse. Results are shown as mean±SEM; *p<0.05; **p<0.01; ***p<0.001.
FIG. 6. Fat and lean mass in prophylactically- and curatively-treated mice compared with control mice under HFD. (A) Body fat mass and relative body fat content, and (B) lean mass and relative lean content were evaluated in HFD-fed mice using MRI analysis. All results are shown as mean±SEM; n=5 per group; *p<0.05. Differences between groups were determined by one-way ANOVA with Bonferroni's multiple comparison.
Six-week-old male C57BL/6J mice (Charles River Laboratories, Ecully, France) were fed a high-fat diet (HFD—45 kcal % fat) or a normal chow diet (NCD) (Ssniff spezialdiäten GmbH, Soest, Germany) for 16 weeks (the time necessary for an inflammatory and fibrotic response to develop).
RIPA-56 (MedChemExpress, Stockholm, Sweden) was incorporated in diet by Ssniff spezialdiäten GmbH (Soest, Germany) according to a standardized protocol. Ssniff company is an approved manufacturer of laboratory animal diets and has the license to produce medicated feed for laboratory animals in accordance with Directive 2001/82/EC. Before the end of the feeding period, mice were single housed for one week in metabolic cages to measure food intake, respiratory exchange ratio (RER), energy expenditure and spontaneous locomotor activity using a LabMaster indirect calorimetry system (TSE Systems GmbH, Bad Homburg, Germany). Mice were sacrificed under anesthesia and blood was collected via intracardiac puncture procedure. Tissue samples were either directly snap-freezed in liquid nitrogen for molecular analysis or fixed in 4% PFA and embedded in paraffin for histological analysis. […]

Q: How did the RIPK1-dependent cell death (L929 cells) turn out when `CCC(C)(C)C(=O)N(O)Cc1ccccc1` [RIPA-56, N-Benzyl-N-hydroxy-2,2-dimethylbutanamide] was run?
A: The RIPK1-dependent cell death was “prevents”.

Q: What about the “MLKL and RIPK3 expression in liver (Western blot)” value (HFD-fed mice; HFD 16 weeks, 300 mg/kg in diet, both prophylactic and curative treatments) of the same molecule?
A: The value was “repressed”.

Q: What about the “hepatic fat content by blinded histological analyses” value (HFD-fed mice; HFD-fed mice) of the same molecule?
A: The value was “marked decrease”.

Q: And the “hepatic triglyceride content, reduction” value (HFD-fed mice; HFD-fed mice)?
A: The value was 30-40%.

Q: What about the “increments in liver mRNA levels of Ccl20, Nlrp3 or Il-1b” value (HFD-fed mice; RIPA-56-treated HFD-fed mice) of the same molecule?
A: Its value is “abrogated or reduced”.

Q: And the “expression of RIPK1 in liver” value (HFD-fed mice; Western blot and RT-qPCR)?
A: Its value is “not impacted”.

Q: And the steatosis (HFD-fed mice; both curative and prophylactic settings)?
A: The steatosis was “largely reduced”.

Q: What about the “increase of serum alanine aminotransferase (ALT)” value (HFD-fed mice; both prophylactic and curative settings) of the same molecule?
A: The value was “abolished”.

Q: And the “macrophage infiltration (hepatic F4/80 immunostaining)” value (HFD-fed mice; both prophylactic and curative treatments)?
A: Its value is “suppressed”.

Q: And the “liver mRNA levels of F4/80 and Mcp-1, difference HFD vs NCD” value (HFD-fed mice; both regimens)?
A: Its value is “disappeared”.

Q: And the “mRNA levels of MLKL and RIPK3 in liver” value (HFD-fed mice; both regimens, RT-qPCR)?
A: The value was “decreased”.

Q: And the “body weight gain, fat- or lean-mass vs untreated HFD-fed mice” value (HFD-fed mice; curative setting, start after 12 weeks of HFD)?
A: The value was “did not result in differences”.

Q: And the “Collagen-1a1 (Col1a1) mRNA levels in liver” value (HFD-fed mice; curative treatment)?
A: Its value is “reduced”.

Q: What about the “TNFα expression in liver” value (HFD-fed mice; curative treatment) of the same molecule?
A: The value was “markedly reduced”.

Q: And the “intensity of histologic features of NASH” value (HFD-fed mice; curative treatment)?
A: Its value is “largely attenuates”.

Q: What about the “pericellular fibrosis (Sirius red staining)” value (HFD-fed mice; prophylactic and curative treatments) of the same molecule?
A: Its value is “virtually disappeared”.

Q: And the “MLKL and RIPK3 expression in liver (Western blot)” value (HFD-fed mice; prophylactic setting)?
A: The value was “almost complete inhibition”.

Q: What about the “body weight gain, lower than untreated HFD-fed mice” value (HFD-fed mice; prophylactic setting) of the same molecule?
A: Its value is ~12%.

Q: What about the “fat and relative fat mass (MRI)” value (HFD-fed mice; prophylactic setting) of the same molecule?
A: Its value is “significant decrease”.

Q: And the “lean and relative lean body mass (MRI)” value (HFD-fed mice; prophylactic setting)?
A: The value was “trend towards increased”.

Q: And the “Collagen-1a1 (Col1a1) mRNA levels in liver” value (HFD-fed mice; prophylactic treatment)?
A: Its value is “no longer increased”.

Q: And the “histologic features of NASH” value (HFD-fed mice; prophylactic treatment)?
A: Its value is “prevents”.

Q: What about the “increase of TNFα expression in liver” value (HFD-fed mice; prophylactic treatment) of the same molecule?
A: Its value is “not after RIPA-56 prophylactic treatment”.

Q: What about the “energy expenditure (indirect calorimetry)” value (HFD-fed mice; prophylactic treatment vs curative or no treatment) of the same molecule?
A: The value was “increased”.
